Assay results from publication PMC4533973, “Synthesis and Evaluation of Chloramphenicol Homodimers: Molecular Target, Antimicrobial Activity, and Toxicity against Human Cells” (PLoS ONE, 2015).

Legend:
[1] = test system: P. aeruginosa (GRE5288); assay: Antibacterial activity (growth inhibition, EC50); assay type: cell-based, Pseudomonas aeruginosa; settings: Pseudomonas aeruginosa; TSB medium; clinical isolate with MexAB-OprM and MexXY efflux; read-out: EC50
Source text: (§1) A.S. Mankin (University of Illinois). E. coli ΔtolC strain BL21 DE3 with impaired AcrAB-TolC, a proton-dependent MDR efflux pump causing multidrug resistance, was offered by Dr D.N. Wilson (University of Munich) and included in our study to test if this mechanism of resistance affects the efficacy of CAM dimers. […] I. Spiliopoulou (National Reference Laboratory for Staphylococci, School of Medicine, University of Patras, Greece). Finally, E. coli strain Rosetta(DE3)pLysS, containing a chloramphenicol resistant gene in the pLysS plasmid, was purchased from Novagen and was also included in our study. Briefly, S. aureus or E. coli cells (200 μl of a 0.700 OD560 preculture) containing wild-type or mutant ribosomes were added in 3.8 ml of LB (Luria-Bertani) medium and grown at 37°C in the presence or absence of CAM or CAM dimers until the optical density of the control culture (grown in the absence of drug) reached the value 0.700 at 560 nm. For E. faecium and P. aeruginosa cultures, TSB (Tryptic Soy Broth) medium was used, instead of LB medium, in order to achieve exponential doubling times between 25 and 35 minutes. From dose-response curves, the half-maximal effective concentration (EC50) for each compound and strain was estimated. EC50 represents the molar concentration of a compound that produces 50% of the maximal possible effect. The EC50 values were mathematically determined by non linear regression fitting of the observed culture optical-density values, expressed as the percentage of 0.700 (y), into Hill Equation, y=min+max−min/1+(x/EC50)^−n where min and max are the lowest and highest observed values of the culture optical density, respectively, x the concentration of the tested compound, and n the Hill coefficient that represents the largest absolute value of the curve slope. EC50 is equal to the x- value of the sigmoid’s midpoint. Fitting was performed using the Four Parameter Logistic Curve of the SigmaPlot Program Version 11.0 (Systat Software, Inc) for Exact Graphs and Data Analysis.

[2] = test system: MRSA (GRE2691); assay: Antibacterial activity (growth inhibition, EC50); assay type: cell-based; settings: Staphylococcus aureus, LB medium, 37°C, OD560, read-out: EC50
Source text: as §1

[3] = test system: S. aureus (WT); assay: Antibacterial activity (growth inhibition, EC50); assay type: cell-based; settings: Staphylococcus aureus; LB medium, 37°C, OD560; read-out: EC50
Source text: as §1

[4] = test system: MRSA (GRE2272); assay: Antibacterial activity (growth inhibition, EC50); assay type: cell-based; settings: Staphylococcus aureus, LB medium, 37°C, OD560, read-out: EC50
Source text: as §1

[5] = test system: E. faecium (GRE5152); assay: Antibacterial activity (growth inhibition, EC50); assay type: cell-based; settings: Enterococcus faecium; TSB medium, 37°C, OD560; read-out: EC50
Source text: as §1

[6] = test system: E. coli (ΔtolC); assay: Antibacterial activity (growth inhibition, EC50); assay type: cell-based, Escherichia coli; settings: Escherichia coli, BL21-DE3
Source text: as §1

[7] = test system: E. coli (WT); assay: Antibacterial activity (growth inhibition, EC50); assay type: cell-based, Escherichia coli; settings: for EC50: Escherichia coli, LB medium, 37°C, OD560; for EC50(cell growth)/IC50(puro): wild-type E. coli, IC50(puro) calculated from Ki* at 2 mM puromycin
Source text: as §1

[8] = test system: E. coli (A2058G); assay: Antibacterial activity (growth inhibition, EC50); assay type: cell-based, Escherichia coli; settings: Escherichia coli
Source text: as §1

[9] = test system: E. coli Rosetta(DE3)pLysS; assay: Antibacterial activity (growth inhibition, EC50); assay type: cell-based, Escherichia coli; settings: Escherichia coli
Source text: as §1

[10] = test system: E. coli (A2503C); assay: Antibacterial activity (growth inhibition, EC50); assay type: cell-based, Escherichia coli; settings: Escherichia coli
Source text: as §1

[11] = test system: post-translocation ribosomal complex (complex C) derived from E. coli; assay: Inhibition of peptide-bond formation (puromycin reaction, AcPhe-puromycin synthesis); assay type: biochemical; settings: for Ki: 25°C, buffer A; for k off: nonlinear regression of k eq; for activity compared to CAM: ranking by K i*; for k6 / k6/k7 / k7: S1 Table
Procedure: The inhibitory effect of CAM dimers on peptide-bond formation was studied using the puromycin reaction, a model reaction between puromycin and a post-translocation ribosomal complex (complex C) derived from E. coli. Since puromycin, a pseudo-substrate of PTase which binds to the A-site of the catalytic center, was present in excess, the reaction obeyed first-order kinetics. The first-order rate constant, k obs, at each concentration of puromycin was determined by fitting the x values into Eq 1, ln100/100−x=kobst (1) where x is the product AcPhe-puromycin, expressed as the percentage of complex C added in the reaction mixture, and t is the time of the reaction.
A representative time plot obtained at 400 μM puromycin, in the absence of inhibitor, is illustrated in Fig 3A (upper line) and, as expected, is characterized by linearity. However, when the reaction proceeded in the presence of a CAM dimer, e.g. compound 5, the time plots were characterized by two unique features that distinguish them from a typical kinetic behavior. […] Second, the slopes of both progress curves varied as a function of the inhibitor concentration (Fig 3A, four lower curves). […] These kinetic results are consistent with compound 5 operating through an induced fit mechanism (Fig 3C), in which the inhibitor first binds rapidly to complex C to form the encounter complex CI, which then undergoes a slow conformational change to produce a final, tighter complex C*I. Corroborative evidence for the consistency of this model is provided by the hyperbolic shape of the equilibration plots (k eq versus [I]), in which k eq represents the apparent rate constant for the attainment of equilibrium among C, CI, and C*I (Fig 3B). If one-step mechanism of inhibition was applicable (C + I ⇄ C*I), k eq should be a linear function of [I] [27]. […] Because the isomerization constant k on/k off was calculated to be 3.6, the inhibition process was finally associated with high overall inhibition of peptide-bond formation (Ki* = 0.3 μM; S1 Fig, panel C). In addition, the slow k off rate (0.64 min^-1) provided prolonged residence time for compound 5 at the ribosome, a behavior potentially predicting good efficacy in vivo [28].
The puromycin reaction, i.e. the reaction between complex C and excess puromycin (S), was carried out at 25°C in buffer A [100 mM Tris-HCl pH 7.2, 6 mM (CH3COO)2Mg, 100 mM NH4Cl and 6 mM 2-mercaptoethanol]. Under these conditions, the puromycin reaction obeys C + S ⇄KS CS→kcat C^′ + S pseudo-first-order kinetics and was analyzed as previously described.
In the presence of CAM dimers, biphasic semi-logarithmic time plots were obtained. The slope of the straight line through the origin was seen as the value of the apparent rate constant, k obs(early), at the early phase of the reaction. Similarly, the slope of the second straight line was taken as the apparent rate constant, k obs(late), at the late phase of the puromycin reaction.

[12] = overall inhibition constant (CI + C*I)

| SMILES | EC50 [1] | EC50 [2] | EC50 [3] | EC50 [4] | EC50 [5] | EC50 [6] | EC50 [7] | EC50(cell growth)/IC50(puro) [7] | EC50 [8] | EC50 [9] | EC50 [10] | melting point | Ki ([11]; encounter complex CI) | k off [11] | Ki [11, 12] | activity compared to CAM [11] | k6 [11] | k6/k7 [11] | k7 [11] |
| --- | --- | --- | --- | --- | --- | --- | --- | --- | --- | --- | --- | --- | --- | --- | --- | --- | --- | --- | --- |
| O=C(CCCCCCCC(=O)N[C@H](CO)[C@H](O)c1ccc([N+](=O)[O-])cc1)N[C@H](CO)[C@H](O)c1ccc([N+](=O)[O-])cc1 [Compound 7, N^1,N^9-Bis((1R,2R)-1,3-dihydroxy-1-(4-nitrophenyl)propan-2-yl)nonanediamide] | > 100 µM | > 200 µM | 72.7 ± 11.8 µM | > 200 µM | > 200 µM | > 200 µM | > 200 µM | >11.9 | > 200 µM | > 200 µM | > 200 µM | 137 to 139 °C | 12 ± 1.2 µM | 0.014 ± 0.001 s⁻¹ | 2.8 ± 0.27 µM | lower | – | – | – |
| O=C(CCCCCCC(=O)N[C@H](CO)[C@H](O)c1ccc([N+](=O)[O-])cc1)N[C@H](CO)[C@H](O)c1ccc([N+](=O)[O-])cc1 [Compound 6, N^1,N^8-Bis((1R,2R)-1,3-dihydroxy-1-(4-nitrophenyl)propan-2-yl)octane-diamide] | > 100 µM | > 200 µM | 49.6 ± 5.4 µM | > 200 µM | > 200 µM | > 200 µM | > 200 µM | >14.5 | > 200 µM | > 200 µM | > 200 µM | 131 to 132 °C | 10.5 ± 0.9 µM | 0.0133 ± 0.00067 s⁻¹ | 2.3 ± 0.2 µM | lower | – | – | – |
| O=C(CC(=O)N[C@H](CO)[C@H](O)c1ccc([N+](=O)[O-])cc1)N[C@H](CO)[C@H](O)c1ccc([N+](=O)[O-])cc1 [Compound 1, N^1,N^3-Bis((1R,2R)-1,3-dihydroxy-1-(4-nitrophenyl)propan-2-yl)malonamide] | > 100 µM | > 200 µM | 32.2 ± 1 µM | > 200 µM | > 200 µM | > 200 µM | > 200 µM | >55.5 | > 200 µM | > 200 µM | > 200 µM | 142 to 143 °C | 2.4 ± 0.18 µM | 0.01 ± 0.00083 s⁻¹ | 0.6 ± 0.05 µM | comparable | – | – | – |
| O=C(O)CCCC(=O)N[C@H](CO)[C@H](O)c1ccc([N+](=O)[O-])cc1 [Compound 9, 5-(((1R,2R)-1,3-dihydroxy-1-(4-nitrophenyl)propan-2-yl)amino)-5-oxopentanoic acid] | – | – | – | – | – | – | – | – | – | – | – | – | – | – | – | – | 2.50 ± 0.33 min⁻¹ | 1.53 ± 0.18 | 1.63 ± 0.12 min⁻¹ |
| O=C(/C=C/c1ccc(/C=C/C(=O)N[C@H](CO)[C@H](O)c2ccc([N+](=O)[O-])cc2)cc1)N[C@H](CO)[C@H](O)c1ccc([N+](=O)[O-])cc1 [Compound 8, N,N^’-Bis((1R,2R)-1,3-dihydroxy-1-(4-nitrophenyl)propan-2-yl)-1,4-phenylene diacryldiamide] | > 100 µM | > 200 µM | > 200 µM | > 200 µM | > 200 µM | > 200 µM | > 200 µM | – | > 200 µM | > 200 µM | > 200 µM | 144 to 145 °C | – | – | – | no activity | – | – | – |
| O=C(O)CCCCC(=O)N[C@H](CO)[C@H](O)c1ccc([N+](=O)[O-])cc1 [Compound 10, 6-(((1R,2R)-1,3-dihydroxy-1-(4-nitrophenyl)propan-2-yl)amino)-6-oxohexanoic acid] | – | – | – | – | – | – | – | – | – | – | – | – | – | – | – | – | 2.52 ± 0.40 min⁻¹ | 2.25 ± 0.27 | 1.11 ± 0.12 min⁻¹ |
| O=C(/C=C/C(=O)N[C@H](CO)[C@H](O)c1ccc([N+](=O)[O-])cc1)N[C@H](CO)[C@H](O)c1ccc([N+](=O)[O-])cc1 [Compound 2, N^1,N^4-Bis((1R,2R)-1,3-dihydroxy-1-(4-nitrophenyl)propan-2-yl)fumaramide] | > 100 µM | > 200 µM | 44.4 ± 2.9 µM | > 200 µM | > 200 µM | > 200 µM | > 200 µM | >44.4 | > 200 µM | > 200 µM | > 200 µM | 207 to 208 °C | 2.7 ± 0.25 µM | 0.0117 ± 0.00083 s⁻¹ | 0.75 ± 0.06 µM | comparable | – | – | – |
| O=C(O)c1ccc(C(=O)N[C@H](CO)[C@H](O)c2ccc([N+](=O)[O-])cc2)cc1 [Compound 11, 4-(((1R,2R)-1,3-dihydroxy-1-(4-nitrophenyl)propan-2-yl)carbamoyl)benzoic acid] | – | – | – | – | – | – | – | – | – | – | – | – | – | – | – | – | 2.31 ± 0.48 min⁻¹ | 1.63 ± 0.31 | 1.42 ± 0.13 min⁻¹ |
| O=C(CCCC(=O)N[C@H](CO)[C@H](O)c1ccc([N+](=O)[O-])cc1)N[C@H](CO)[C@H](O)c1ccc([N+](=O)[O-])cc1 [Compound 3, N^1,N^5-Bis((1R,2R)-1,3-dihydroxy-1-(4-nitrophenyl)propan-2-yl)glutaramide] | 42.4 ± 8.7 µM | 27.2 ± 3.4 µM | 17.4 ± 1.3 µM | 20.8 ± 2.5 µM | 69.8 ± 14.8 µM | 43.7 ± 5.2 µM | 52.4 ± 6.8 µM | 7.28 ± 1.08 | 47.3 ± 6.9 µM | 65.1 ± 6.6 µM | 68.1 ± 13.8 µM | – | 4.5 ± 0.36 µM | 0.0167 ± 0.0005 s⁻¹ | 1.2 ± 0.09 µM | lower | – | – | – |
